US11103528B1, “Slow release calcium composition” (Government of the United States, as represented by the …, priority 2019, dated 2021)

System: retinal pigmented epithelium (RPE) wild-type (WT) cells
Assay: Effect of calcium and red-light irradiation on NO levels (DAF-FM DA integrated fluorescence)
Type: cell-based
Description: In this experiment, the influence of Ca^2+ on nitric oxide (NO) levels was determined by measuring the integrated fluorescence of the reaction product of NO with diaminofluorescein-FM diacetate (DAF-FM DA, C25H18F2N2O7).
Procedurally, the experiment was carried out using a 96 well plate, with either ionic calcium (Ca^2+) or encapsulated calcium (CaCD) added to each of the wells. The concentration of calcium in the wells as CaCl2 was 1.67 mM, and the concentration as CaCD was 2.79 mM stock (or 5 μM final concentration), in a total volume of 300 μL in each well. The number of RPE-WT cells was approximately 175,000 per well. Two reference samples for CaCl2 and CaCD were used to compare relative changes upon exposure to red-light in the presence of Ca^2+. The RPE cells were incubated with DAF-FM DA for 30 minutes at 37 degrees C. and the fluorescence was immediately measured (as time-point 0 minutes) to obtain a ‘background’ baseline.

[Ca+2].[Cl-].[Cl-] [Ca, CaCl2]
Intensity (integrated fluorescence of DAF-FM DA, NO level) (WT in PBS + Ca (no red light), Time 9.09 (minutes)): 85.40 | Intensity (integrated fluorescence of DAF-FM DA, NO level) (WT in PBS + Ca (no red light), Time 28.63 (minutes)): 92.76 | Intensity (integrated fluorescence of DAF-FM DA, NO level) (WT in PBS + Ca (no red light), Time 75.14 (minutes)): 100.20 | Intensity (integrated fluorescence of DAF-FM DA, NO level) (WT in PBS + Ca (no red light), Time 307.24 (minutes)): 191.01 | Intensity (integrated fluorescence of DAF-FM DA, NO level) (WT in PBS + Ca (no red light), Time 319.44 (minutes)): 198.35 | Intensity (integrated fluorescence of DAF-FM DA, NO level) (WT in PBS + Ca (no red light), Time 431.58 (minutes)): 271.80 | Intensity (integrated fluorescence of DAF-FM DA, NO level) (WT in PBS + Ca (no red light), Time 460.95 (minutes)): 276.75 | Intensity (integrated fluorescence of DAF-FM DA, NO level) (WT in PBS + Ca (no red light), Time 770.49 (minutes)): 489.70 | Intensity (integrated fluorescence of DAF-FM DA, NO level) (WT in PBS + Ca (no red light), Time 799.74 (minutes)): 509.28 | Intensity (integrated fluorescence of DAF-FM DA, NO level) (WT in PBS + Ca + RL15, Time 9.09 (minutes)): 85.40 | Intensity (integrated fluorescence of DAF-FM DA, NO level) (WT in PBS + Ca + RL15, Time 28.61 (minutes)): 95.20 | Intensity (integrated fluorescence of DAF-FM DA, NO level) (WT in PBS + Ca + RL15, Time 70.2 (minutes)): 105.06 | Intensity (integrated fluorescence of DAF-FM DA, NO level) (WT in PBS + Ca + RL15, Time 307.22 (minutes)): 193.44 | Intensity (integrated fluorescence of DAF-FM DA, NO level) (WT in PBS + Ca + RL15, Time 316.95 (minutes)): 203.22 | Intensity (integrated fluorescence of DAF-FM DA, NO level) (WT in PBS + Ca + RL15, Time 428.93 (minutes)): 296.18 | Intensity (integrated fluorescence of DAF-FM DA, NO level) (WT in PBS + Ca + RL15, Time 460.74 (minutes)): 303.57 | Intensity (integrated fluorescence of DAF-FM DA, NO level) (WT in PBS + Ca + RL15, Time 765.45 (minutes)): 506.76 | Intensity (integrated fluorescence of DAF-FM DA, NO level) (WT in PBS + Ca + RL15, Time 799.54 (minutes)): 533.67 | Intensity (integrated fluorescence of DAF-FM DA, NO level) (WT in PBS + Ca + RL30, Time 11.6 (minutes)): 68.33 | Intensity (integrated fluorescence of DAF-FM DA, NO level) (WT in PBS + Ca + RL30, Time 33.6 (minutes)): 75.70 | Intensity (integrated fluorescence of DAF-FM DA, NO level) (WT in PBS + Ca + RL30, Time 72.9 (minutes)): 73.36 | Intensity (integrated fluorescence of DAF-FM DA, NO level) (WT in PBS + Ca + RL30, Time 308 (minutes)): 83.69 | Intensity (integrated fluorescence of DAF-FM DA, NO level) (WT in PBS + Ca + RL30, Time 320.3 (minutes)): 86.16 | Intensity (integrated fluorescence of DAF-FM DA, NO level) (WT in PBS + Ca + RL30, Time 427 (minutes)): 237.64 | Intensity (integrated fluorescence of DAF-FM DA, NO level) (WT in PBS + Ca + RL30, Time 466 (minutes)): 240.17 | Intensity (integrated fluorescence of DAF-FM DA, NO level) (WT in PBS + Ca + RL30, Time 770.9 (minutes)): 462.87 | Intensity (integrated fluorescence of DAF-FM DA, NO level) (WT in PBS + Ca + RL30, Time 799.9 (minutes)): 494.65 | Intensity (integrated fluorescence of DAF-FM DA, NO level) (WT in PBS + Ca + RL60, Time 11.52 (minutes)): 87.84 | Intensity (integrated fluorescence of DAF-FM DA, NO level) (WT in PBS + Ca + RL60, Time 33.54 (minutes)): 92.78 | Intensity (integrated fluorescence of DAF-FM DA, NO level) (WT in PBS + Ca + RL60, Time 72.65 (minutes)): 105.07 | Intensity (integrated fluorescence of DAF-FM DA, NO level) (WT in PBS + Ca + RL60, Time 307.26 (minutes)): 188.57 | Intensity (integrated fluorescence of DAF-FM DA, NO level) (WT in PBS + Ca + RL60, Time 319.42 (minutes)): 200.79 | Intensity (integrated fluorescence of DAF-FM DA, NO level) (WT in PBS + Ca + RL60, Time 429.53 (minutes)): 223.01 | Intensity (integrated fluorescence of DAF-FM DA, NO level) (WT in PBS + Ca + RL60, Time 463.82 (minutes)): 225.53 | Intensity (integrated fluorescence of DAF-FM DA, NO level) (WT in PBS + Ca + RL60, Time 768.4 (minutes)): 445.79 | Intensity (integrated fluorescence of DAF-FM DA, NO level) (WT in PBS + Ca + RL60, Time 799.9 (minutes)): 480.01 | DAF-FM DA NO profile (ionic calcium wells, over the entire 800 minutes): continued to increase
